Laboratory results: patent US6083973A, “Methods for inhibiting mucin secretion using RAR α selective antagonists” (Syntex (U.S.A.) Inc., priority 1999, dated 2000)

Experiments:
[1] = biological target: T1, RARγ (Homo sapiens, UniProt P13631); test: RAR binding, competition with labelled ATRA, γ
T1 sequence (P13631 1-454): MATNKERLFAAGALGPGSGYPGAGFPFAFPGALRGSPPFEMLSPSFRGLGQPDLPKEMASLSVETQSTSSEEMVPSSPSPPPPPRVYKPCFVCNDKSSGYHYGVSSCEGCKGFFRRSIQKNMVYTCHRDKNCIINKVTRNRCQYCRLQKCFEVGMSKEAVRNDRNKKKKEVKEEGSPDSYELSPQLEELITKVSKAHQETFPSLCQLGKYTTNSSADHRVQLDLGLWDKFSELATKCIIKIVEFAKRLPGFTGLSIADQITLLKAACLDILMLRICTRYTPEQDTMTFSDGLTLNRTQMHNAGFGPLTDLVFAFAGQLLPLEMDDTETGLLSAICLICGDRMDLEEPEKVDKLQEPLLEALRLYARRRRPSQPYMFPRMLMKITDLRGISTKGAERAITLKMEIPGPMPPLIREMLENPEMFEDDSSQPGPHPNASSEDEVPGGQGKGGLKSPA
Protocol: (§1) The term "IC50 " of a retinoid for a retinoic acid receptor refers to the concentration of the retinoid at which binding by ATRA to that particular receptor is inhibited by 50%. Binding is measured by competition of the retinoid with labelled ATRA.
(§2) The RARα antagonist selectivity of a compound can be determined by routine ligand binding assays known to one of skill in the art such as described in C. Apfel, et al. Proc. Nat. Sci. Acad. (USA), 89:7129-7133 (1992); M. Teng, et al, J. Med. Chem., 40:2445-2451 (1997); and PCT Publication WO 96/30009.

[2] = biological target: T2, RARα (Homo sapiens, UniProt P10276); test: Transactivation of RARα relative to ATRA; type: biochemical; details: both compounds at 10000 nM, read-out: Transactivation EC50 % MAX, RARα
T2 sequence (P10276 1-462): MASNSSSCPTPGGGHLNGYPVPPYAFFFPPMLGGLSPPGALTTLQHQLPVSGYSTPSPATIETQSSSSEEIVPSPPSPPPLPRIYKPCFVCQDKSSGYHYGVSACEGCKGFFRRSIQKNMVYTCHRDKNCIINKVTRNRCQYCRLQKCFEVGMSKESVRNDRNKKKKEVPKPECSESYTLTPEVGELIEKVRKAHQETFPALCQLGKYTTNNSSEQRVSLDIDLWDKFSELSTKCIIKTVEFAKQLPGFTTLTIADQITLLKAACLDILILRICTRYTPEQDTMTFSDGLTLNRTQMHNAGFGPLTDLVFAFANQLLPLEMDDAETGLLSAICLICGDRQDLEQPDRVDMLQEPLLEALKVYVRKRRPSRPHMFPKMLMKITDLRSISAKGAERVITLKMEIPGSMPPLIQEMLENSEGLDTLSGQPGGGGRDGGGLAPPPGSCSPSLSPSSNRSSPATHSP
Protocol: (§3) As used herein, the term "EC50 " of a retinoid for a retinoic acid receptor means the transactivation by the retinoid of the particular retinoic acid receptor under consideration relative to the transactivation of that same receptor by ATRA under identical conditions with both retinoids at the same concentration (1000 nM or 10000 nM depending on the highest concentration tested). Values are expressed as a percentage.
(§4) As used herein, the term "transactivation" refers to the ability of a retinoid to activate the transcription of a gene where the gene transcription is initiated by the binding of a ligand to the particular retinoic acid receptor being tested, i.e., RARα, RARβ, or RARγ. Determining the ability of a compound to transactivate a retinoic acid receptor may be performed by methods known to those of skill in the art. Examples of such methods are found in Bernard, et al. Biochem. Biophys. Res. Commun., 186:977-983 (1992) and C. Apfel, et al. Proc. Nat. Sci. Acad. (USA), 89:7129-7133 (1992).
(§5) EC50 's were determined relative to ATRA, with both compounds at 10000 nM. Values are expressed as a percentage of transactivation relative to ATRA.

[3] = biological target: T2, RARα; test: RAR binding, competition with labelled ATRA, α
Protocol: as §1, §2

[4] = biological target: T3, RARβ (Homo sapiens, UniProt P10826); test: RAR binding, competition with labelled ATRA, β
T3 sequence (P10826 1-455): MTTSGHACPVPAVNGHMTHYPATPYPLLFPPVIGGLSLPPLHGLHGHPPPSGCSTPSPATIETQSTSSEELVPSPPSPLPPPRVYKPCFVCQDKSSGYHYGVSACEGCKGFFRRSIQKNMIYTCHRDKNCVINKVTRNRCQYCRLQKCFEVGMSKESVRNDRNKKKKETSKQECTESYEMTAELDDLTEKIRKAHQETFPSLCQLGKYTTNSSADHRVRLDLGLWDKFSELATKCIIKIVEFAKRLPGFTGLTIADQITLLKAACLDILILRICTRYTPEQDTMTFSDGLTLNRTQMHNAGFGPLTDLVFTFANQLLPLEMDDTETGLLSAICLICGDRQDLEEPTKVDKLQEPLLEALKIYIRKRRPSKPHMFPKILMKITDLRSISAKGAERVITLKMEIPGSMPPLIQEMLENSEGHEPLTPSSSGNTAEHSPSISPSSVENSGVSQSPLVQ
Protocol: as §1, §2

[5] = biological target: T3, RARβ; test: Transactivation of RARβ relative to ATRA; type: biochemical; details: both compounds at 10000 nM, read-out: Transactivation EC50 % MAX, RARβ
Protocol: as §3, §4, §5

[6] = biological target: T1, RARγ; test: Transactivation of RARγ relative to ATRA; type: biochemical; details: both compounds at 10000 nM, read-out: Transactivation EC50 % MAX, RARγ
Protocol: as §3, §4, §5

[7] = system: MUC5AC; test: MUC5AC gene transactivation in NHBE cells, RT-PCR; type: cell-based, human; details: even at the highest dose, 1×10^-6 M, Example 2
Protocol: (§6) Transactivation of mucin genes in normal primary human bronchial epithelial cells (NHBE) was performed as described by Gray et al. Am. J. Respir. Biol., 14:104-112 (1996). Primary human airway epithelial cells were cultured on porous Transwell membranes (Corning/Costar) in defined media in the absence of all-trans retinoic acid (ATRA) for 7 days. After seven days, fresh media±ATRA or selective retinoid, was added to the basal culture compartment to create an air-liquid interface (ALI). ATRA and/or selective retinoids were used at a concentration or 1×10^-7 M. The selective retinoids used were: Compound X (RARα selective agonist), RXR agonist (SRI 11217) and anti-AP1 retinoid (SRI 11302). After seven additional days of culture the media was harvested for analysis of secreted mucin gene product using specific ELISA as previously described (Gray et al). The cell layer was lysed using a guanidinium-based buffer (TRIZOL/Sigma) for RNA extraction and analysis. Amplification of MUC2 and MUC5AC RNA was performed by standard RT-PCR using appropriate selective primer and mimics pairs (Guzman et al., Am. J. Physiol. 271 (Lung Cell Mol Physiol.15): L1023-L1028 (1996) and PCR products were detected in ethedium bromide stained agarose gels.
(§7) Transactivation of mucin genes in NHBE was performed as described above with the exception that media was supplemented with RAR alpha (RARα), beta (RARβ), or gamma (RARγ)-selective retinoids on days 7 through day 14. The RAR alpha (RARα), beta (RARβ), or gamma (RARγ)-selective retinoids were compounds X, Y and CD-437 respectively.
(§8) Transactivation of mucin genes in NHBE was performed as described above. On days 7 through day 14 cells were cultured with 1×10^-6 M RARα antagonist, Compound Z, alone or in combination with 1×10^-7 M ATRA or RARα selective agonist, Compound X. The effects on mucin gene transactivation and expression were determined by RT-PCR and ELISA as described above. RARα selective antagonist, Compound Z, had no effect on MUC2 or MUC5AC gene expression.

[8] = system: MUC2; test: MUC2 gene transactivation in NHBE cells, RT-PCR; type: cell-based, human; details: even at the highest dose, 1×10^-6 M, Example 2
Protocol: as §6, §7, §8

SMILES | IC50 [1] | Emax at 10 µM [2] | IC50 [3] | IC50 [4] | % transactivation relative to ATRA at 10 µM [5] | Emax at 10 µM [6] | Induction of MUC5AC [7] | Induction of MUC2 [8]
CCCCCCCCc1cc2c(cc1/C(C)=C/c1ccc(C(=O)O)cc1)C(C)(C)CCCS2(=O)=O | 1800 nM | 18% | 200 nM | 3.3 µM | 13% | 36% | – | –
CCCCCCCOc1cc2c(cc1\C(C)=C/C=C/C(C)=C/C(=O)O)C(C)(C)CCS2(=O)=O | > 10000 nM | 24% | 450 nM | > 10 µM | 31% | 20% | – | –
CCCCCCOc1cc2c(cc1/C(C)=C/C=C/C(C)=C/C(=O)O)C(C)(C)CCCS2(=O)=O | 1300 nM | 20% | 250 nM | 2.5 µM | 32% | 46% | – | –
CCCCCCCCOc1cc2c(cc1/C(C)=C/c1ccc(C(=O)O)cc1)C(C)(C)CCCS2(=O)=O | 2600 nM | 8% | 390 nM | 6.9 µM | 21% | 25% | – | –
CCCCCCOc1cc2c(cc1/C(C)=C/c1ccc(C(=O)O)cc1)C(C)(C)CCCS2(=O)=O | 2600 nM | 14% | 580 nM | 3.8 µM | 37% | 54% | – | –
CCCCCCCOc1cc2c(cc1/C(C)=C/c1ccc(C(=O)O)cc1)C(C)(C)CS2(=O)=O | 3400 nM | 11% | 160 nM | 6.9 µM | 22% | 24% | – | –
O=C(O)c1ccc2cc(-c3ccc(O)c(C45CC6CC(CC(C6)C4)C5)c3)ccc2c1 [CD-437, 6-[3-(1-adamantyl)-4-hydroxyphenyl]-2-naphthalenecarboxylic acid] | – | – | – | – | – | – | minimal | minimal
CCCCCCCOc1cc2c(cc1/C(C)=C/c1ccc(C(=O)O)cc1)C(C)(C)CCS2(=O)=O [drawing 3] | 4200 nM | 16% | 77 nM | – | 3% | 9% | – | –
CCCCCCCOc1cc2c(cc1/C(C)=C/C=C/C(C)=C/C(=O)O)C(C)(C)CCS2(=O)=O [drawing 4] | 2400 nM | 9% | 27 nM | 5.1 µM | 14% | 16% | – | –
